The target of the test is human RORγt LBD fused to the DNA binding domain of the GAL4 protein (Homo sapiens (Human), UniProt P51449). In words: RORγt (LBD) reporter assay in HEK293T cells. Further details: RORγt (LBD) Reporter Assay, % inhibition: dose or concentration left out as unconfirmed. The conditions noted are these: for inhibition at 6 µM: HEK-293T, read-out: RORγt (LBD) Reporter Assay, % inhibition @ 6 μM, @ 6 μM. Format: cell-based.
Sequence of human RORγt LBD fused to the DNA binding domain of the GAL4 protein (P51449 258-518): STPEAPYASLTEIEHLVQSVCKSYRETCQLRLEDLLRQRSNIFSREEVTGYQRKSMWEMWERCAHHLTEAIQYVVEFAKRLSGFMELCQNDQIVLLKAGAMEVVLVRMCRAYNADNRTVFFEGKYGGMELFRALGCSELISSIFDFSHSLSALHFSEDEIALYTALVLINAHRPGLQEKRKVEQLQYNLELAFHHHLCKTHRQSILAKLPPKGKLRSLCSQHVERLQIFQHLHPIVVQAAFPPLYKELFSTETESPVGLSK

For the compound `COc1nc2ccc(C(O)(c3ccc(C)nc3C)c3cnnn3C)cc2c(Cl)c1CN1CCC(n2cccn2)CC1` (single isomer, unassigned) [Example 105c, (3-((4-(1H-Pyrazol-1-yl)piperidin-1-yl)methyl)-4-chloro-2-methoxyquinolin-6-yl)(2,6-dimethylpyridin-3-yl)(1-methyl-1H-1,2,3-triazol-5-yl)methanol], the “RORγt (LBD) Reporter Assay, % inhibition @ 6 μM” value (from here on “RORγt … % inhibition @ 6 μM”) is 87%.

Consider `COc1nc2ccc(C(O)(c3cnnn3C)c3cnc(C)n3C)cc2c(Cl)c1CN1CCC(C(F)(F)F)CC1` (single isomer, unassigned) [Example 106b, (4-Chloro-2-methoxy-3-((4-(trifluoromethyl)piperidin-1-yl)methyl)quinolin-6-yl)(1,2-dimethyl-1H-imidazol-5-yl)(1-methyl-1H-1,2,3-triazol-5-yl)methanol], for which the inhibition at 6 µM is 103%.

On to `COc1nc2ccc(C(O)(c3ccc(C)nc3C)c3cnnn3C)cc2c(Cl)c1CN1CCC(F)(F)CC1` (single isomer, unassigned) [Example 107b, (4-Chloro-3-((4,4-difluoropiperidin-1-yl)methyl)-2-methoxyquinolin-6-yl)(2,6-dimethylpyridin-3-yl)(1-methyl-1H-1,2,3-triazol-5-yl)methanol], for which the inhibition at 6 µM worked out at 38%. Take `COc1nc2ccc(C(O)(c3ccc(C)nc3C)c3cnnn3C)cc2c(Cl)c1CN1CCC(F)(F)CC1` (single isomer, unassigned) [Example 107c, (4-Chloro-3-((4,4-difluoropiperidin-1-yl)methyl)-2-methoxyquinolin-6-yl)(2,6-dimethylpyridin-3-yl)(1-methyl-1H-1,2,3-triazol-5-yl)methanol]: the “RORγt … % inhibition @ 6 μM” value was found to be 54%.

Turning to `COc1nc2ccc(C(O)(c3ccc(C)nc3C)c3cnnn3C)cc2c(Cl)c1CN1CCC(F)CC1` (single isomer, unassigned) [Example 108b, (4-Chloro-3-((4-fluoropiperidin-1-yl)methyl)-2-methoxyquinolin-6-yl)(2,6-dimethylpyridin-3-yl)(1-methyl-1H-1,2,3-triazol-5-yl)methanol], the “RORγt … % inhibition @ 6 μM” value worked out at 6%.

`COc1nc2ccc(C(O)(c3ccc(C)nc3C)c3cnnn3C)cc2c(Cl)c1CN1CCC(F)CC1` (single isomer, unassigned) [Example 108c, (4-Chloro-3-((4-fluoropiperidin-1-yl)methyl)-2-methoxyquinolin-6-yl)(2,6-dimethylpyridin-3-yl)(1-methyl-1H-1,2,3-triazol-5-yl)methanol]: the “RORγt … % inhibition @ 6 μM” value came out at 14%. For the compound `COc1nc2ccc(C(O)(c3ccc(C(F)(F)F)nc3)c3cncn3C)cc2c(Cl)c1CN1CCC(C(F)(F)F)CC1` (single isomer, unassigned) [Example 112b, (4-Chloro-2-methoxy-3-((4-(trifluoromethyl)piperidin-1-yl)methyl)quinolin-6-yl)(1-methyl-1H-imidazol-5-yl)(6-(trifluoromethyl)pyridin-3-yl)methanol], the inhibition at 6 µM worked out at 97%. On to `COc1nc2ccc(C(O)(c3ccc(C(F)(F)F)nc3)c3cncn3C)cc2c(Cl)c1CN1CCC(C(F)(F)F)CC1` (single isomer, unassigned) [Example 112c, (4-Chloro-2-methoxy-3-((4-(trifluoromethyl)piperidin-1-yl)methyl)quinolin-6-yl)(1-methyl-1H-imidazol-5-yl)(6-(trifluoromethyl)pyridin-3-yl)methanol], for which the “RORγt … % inhibition @ 6 μM” value came to 96%. With `COc1nc2ccc(C(O)(c3ccc(C)nc3C)c3cnnn3C)cc2c(Cl)c1CN1CC(C(F)(F)F)C1` (single isomer, unassigned) [Example 114b, (4-Chloro-2-methoxy-3-((3-(trifluoromethyl)azetidin-1-yl)methyl)quinolin-6-yl)(2,6-dimethylpyridin-3-yl)(1-methyl-1H-1,2,3-triazol-5-yl)methanol], the inhibition at 6 µM is 60%. Take `COc1nc2ccc(C(O)(c3ccc(C)nc3C)c3cnnn3C)cc2c(Cl)c1CN1CC(C(F)(F)F)C1` (single isomer, unassigned) [Example 114c, (4-Chloro-2-methoxy-3-((3-(trifluoromethyl)azetidin-1-yl)methyl)quinolin-6-yl)(2,6-dimethylpyridin-3-yl)(1-methyl-1H-1,2,3-triazol-5-yl)methanol]: the “RORγt … % inhibition @ 6 μM” value was 72%.

Take `COc1nc2ccc(C(O)(c3ccc(C)nc3C)c3cnnn3C)cc2c(Cl)c1CC(C)C` (single isomer, unassigned) [Example 133b, (4-Chloro-3-isobutyl-2-methoxyquinolin-6-yl)(2,6-dimethylpyridin-3-yl)(1-methyl-1H-1,2,3-triazol-5-yl)methanol]: the “RORγt (LBD) Reporter Assay, % inhibition” value was found to be 90%. On the same count and under the same terms, the same measure for `COc1nc2ccc(C(O)(c3ccc(C)nc3C)c3cnnn3C)cc2c(Cl)c1CC(C)C` (single isomer, unassigned) [Example 133c, (4-Chloro-3-isobutyl-2-methoxyquinolin-6-yl)(2,6-dimethylpyridin-3-yl)(1-methyl-1H-1,2,3-triazol-5-yl)methanol]: 98%; for `COc1nc2ccc(C(O)(c3ccc(C)nc3C)c3cnnn3C)cc2c(Cl)c1C1CCCC1` (single isomer, unassigned) [Example 136b, (4-Chloro-3-cyclopentyl-2-methoxyquinolin-6-yl)(2,6-dimethylpyridin-3-yl)(1-methyl-1H-1,2,3-triazol-5-yl)methanol]: 76%; for `COc1nc2ccc(C(O)(c3ccc(C)nc3C)c3cnnn3C)cc2c(Cl)c1C1CCCC1` (single isomer, unassigned) [Example 136c, (4-Chloro-3-cyclopentyl-2-methoxyquinolin-6-yl)(2,6-dimethylpyridin-3-yl)(1-methyl-1H-1,2,3-triazol-5-yl)methanol]: 98%. Turning to `COc1nc2ccc(C(O)(c3ccc(C)nc3C)c3cnnn3C)cc2c(Cl)c1CC(F)(F)F` (single isomer, unassigned) [Example 143b, [4-Chloro-2-methoxy-3-(2,2,2-trifluoroethyl)quinolin-6-yl](2,6-dimethylpyridin-3-yl)(1-methyl-1H-1,2,3-triazol-5-yl)methanol], the “RORγt (LBD) Reporter Assay, % inhibition” value is given as 77%. For the compound `COc1nc2ccc(C(O)(c3cncn3C)C3CCN(C(C)=O)CC3)cc2c(Cl)c1CC1CCOCC1` (centres unmarked) [Example 5a, 1-(4-((4-Chloro-2-methoxy-3-((tetrahydro-2H-pyran-4-yl)methyl)quinolin-6-yl)(hydroxy)(1-methyl-1H-imidazol-5-yl)methyl)piperidin-1-yl)ethanone], the inhibition at 6 µM turned out to be 45%. Still for that read-out and setting: the same measure for `COc1nc2ccc(C(O)(c3ccc(C)nc3C)c3cnnn3C)cc2c(Cl)c1C` (centres unmarked) [Example 12a, (4-Chloro-2-methoxy-3-methylquinolin-6-yl)(2,6-dimethylpyridin-3-yl)(1-methyl-1H-1,2,3-triazol-5-yl)methanol]: 93%; for `COc1nc2ccc(C(O)(c3ccc(C)nc3C)c3cnnn3C)cc2c(Cl)c1CC1CC1` (centres unmarked) [Example 14a, (4-Chloro-3-(cyclopropylmethyl)-2-methoxyquinolin-6-yl)(2,6-dimethylpyridin-3-yl)(1-methyl-1H-1,2,3-triazol-5-yl)methanol]: 99%.

For `COc1nc2ccc(C(O)(c3ccc(C)nc3C)c3cnnn3C)cc2c(Cl)c1OCc1ncccn1` (centres unmarked) [Example 66a, [4-Chloro-2-methoxy-3-(pyrimidin-2-ylmethoxy)quinolin-6-yl](2,6-dimethylpyridin-3-yl)(1-methyl-1H-1,2,3-triazol-5-yl)methanol], the inhibition at 6 µM was -112%. Take `COc1nc2ccc(C(O)(c3ccc(C)nc3C)c3cnnn3C)cc2c(Cl)c1OCC1CC1` (centres unmarked) [Example 68a, [4-Chloro-3-(cyclopropylmethoxy)-2-methoxyquinolin-6-yl](2,6-dimethylpyridin-3-yl)(1-methyl-1H-1,2,3-triazol-5-yl)methanol]: the inhibition at 6 µM was 83%.

For `COc1nc2ccc(C(O)(c3ccc(C)nc3C)c3cnnn3C)cc2c(Cl)c1OC1CCOCC1` (centres unmarked) [Example 69a, [4-Chloro-2-methoxy-3-(tetrahydro-2H-pyran-4-yloxy)quinolin-6-yl](2,6-dimethylpyridin-3-yl)(1-methyl-1H-1,2,3-triazol-5-yl)methanol], the inhibition at 6 µM is 57%. The same measure, in the same setting: in the case of `COc1nc2ccc(C(O)(c3ccc(C)nc3C)c3cnnn3C)cc2c(Cl)c1OCC1CC1(F)F` (centres unmarked) [Example 72a, {4-Chloro-3-[(2,2-difluorocyclopropyl)methoxy]-2-methoxyquinolin-6-yl}(2,6-dimethylpyridin-3-yl)(1-methyl-1H-1,2,3-triazol-5-yl)methanol] it was 85%; in that of `COc1nc2ccc(C(O)(c3ccc(C)nc3C)c3cnnn3C)cc2c(Cl)c1CN1CCC(C(F)(F)F)CC1` (centres unmarked) [Example 103a, (4-Chloro-2-methoxy-3-((4-(trifluoromethyl)piperidin-1-yl)methyl)quinolin-6-yl)(2,6-dimethylpyridin-3-yl)(1-methyl-1H-1,2,3-triazol-5-yl)methanol], 101%.

For `COc1nc2ccc(C(O)(c3ccc(C)nc3C)c3cnnn3C)cc2c(Cl)c1CN1CCC(F)(F)CC1` (centres unmarked) [Example 107a, (4-Chloro-3-((4,4-difluoropiperidin-1-yl)methyl)-2-methoxyquinolin-6-yl)(2,6-dimethylpyridin-3-yl)(1-methyl-1H-1,2,3-triazol-5-yl)methanol], the inhibition at 6 µM was 54%. As for `COc1nc2ccc(C(O)(c3ccc(C)nc3C)c3cnnn3C)cc2c(Cl)c1CC(C)C` (centres unmarked) [Example 133a, (4-Chloro-3-isobutyl-2-methoxyquinolin-6-yl)(2,6-dimethylpyridin-3-yl)(1-methyl-1H-1,2,3-triazol-5-yl)methanol], the “RORγt (LBD) Reporter Assay, % inhibition” value came to 98%.

Turning to `COc1nc2ccc(C(O)(c3ccc(C)nc3C)c3cnnn3C)cc2c(Cl)c1C1CCCC1` (centres unmarked) [Example 136a, (4-Chloro-3-cyclopentyl-2-methoxyquinolin-6-yl)(2,6-dimethylpyridin-3-yl)(1-methyl-1H-1,2,3-triazol-5-yl)methanol], the “RORγt (LBD) Reporter Assay, % inhibition” value amounted to 97%.
